Source: ChEMBL document CHEMBL4507319 (2021)

What was measured:
[1] = target: Serine/threonine-protein kinase PAK 1 (Homo sapiens) (UniProt Q13153); experiment: PAK1(h) Eurofins kinase panel; conditions: Compound concentration 1.0 uM
[2] = target: Serine/threonine-protein kinase PAK 2 (Homo sapiens) (UniProt Q13177); experiment: PAK2(h) Eurofins kinase panel; conditions: Compound concentration 1.0 uM
[3] = target: Death-associated protein kinase 3 (Homo sapiens) (UniProt O43293); experiment: ZIPK(h) Eurofins kinase panel; conditions: Compound concentration 1.0 uM
[4] = target: Transient receptor potential cation channel subfamily M member 7 (Homo sapiens) (UniProt Q96QT4); experiment: ChaK1(h) Eurofins kinase panel; conditions: Compound concentration 1.0 uM
[5] = target: T1, Serine/threonine-protein kinase Chk1 (Homo sapiens) (UniProt O14757); experiment: CHK1(h) Eurofins kinase panel; conditions: Compound concentration 1.0 uM
T1 sequence (whole entry): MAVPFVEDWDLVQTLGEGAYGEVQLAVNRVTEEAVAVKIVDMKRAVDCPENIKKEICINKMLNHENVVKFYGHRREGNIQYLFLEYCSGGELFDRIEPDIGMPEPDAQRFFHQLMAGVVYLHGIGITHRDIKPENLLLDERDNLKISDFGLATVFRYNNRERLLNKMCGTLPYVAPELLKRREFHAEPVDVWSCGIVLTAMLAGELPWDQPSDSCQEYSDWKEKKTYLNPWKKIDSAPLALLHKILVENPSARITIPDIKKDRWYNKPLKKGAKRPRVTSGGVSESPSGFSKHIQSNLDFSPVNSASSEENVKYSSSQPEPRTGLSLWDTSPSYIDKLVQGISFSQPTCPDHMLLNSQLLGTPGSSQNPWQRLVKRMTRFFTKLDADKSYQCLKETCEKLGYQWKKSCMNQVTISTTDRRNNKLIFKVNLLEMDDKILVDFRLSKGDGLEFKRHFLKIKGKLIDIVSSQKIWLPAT

[6] = target: Serine/threonine-protein kinase SIK1 (Homo sapiens) (UniProt P57059); experiment: SIK(h) Eurofins kinase panel; conditions: Compound concentration 1.0 uM
[7] = target: Ribosomal protein S6 kinase alpha-3 (Homo sapiens, UniProt P51812); conditions: Compound concentration 1.0 uM
[8] = target: Serine/threonine-protein kinase VRK2 (Homo sapiens) (UniProt Q86Y07); experiment: VRK2(h) Eurofins kinase panel; conditions: Compound concentration 1.0 uM
[9] = target: T2, Serine/threonine-protein kinase Sgk1 (Homo sapiens) (UniProt O00141); experiment: SGK(h) Eurofins kinase panel; conditions: Compound concentration 1.0 uM
T2 sequence (whole entry): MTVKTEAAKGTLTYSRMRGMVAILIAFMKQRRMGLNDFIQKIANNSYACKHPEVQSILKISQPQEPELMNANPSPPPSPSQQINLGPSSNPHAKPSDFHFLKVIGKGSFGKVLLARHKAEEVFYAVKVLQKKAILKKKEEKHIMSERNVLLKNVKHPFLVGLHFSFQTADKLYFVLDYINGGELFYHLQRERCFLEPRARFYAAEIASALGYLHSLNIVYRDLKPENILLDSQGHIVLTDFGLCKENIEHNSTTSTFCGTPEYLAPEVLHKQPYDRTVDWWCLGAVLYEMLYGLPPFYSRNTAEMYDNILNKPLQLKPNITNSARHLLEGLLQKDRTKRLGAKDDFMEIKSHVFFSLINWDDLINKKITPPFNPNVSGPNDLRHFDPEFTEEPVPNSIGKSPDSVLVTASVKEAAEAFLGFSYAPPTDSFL

SNU-16 = experiment: SNU-16 cell line Proliferation assay; format: functional, Homo sapiens; conditions: time 3 day
[10] = target: T3, Inhibitor of nuclear factor kappa-B kinase subunit epsilon (Homo sapiens) (UniProt Q14164); experiment: IKKepsilon(h) Eurofins kinase panel; conditions: Compound concentration 1.0 uM
T3 sequence (whole entry): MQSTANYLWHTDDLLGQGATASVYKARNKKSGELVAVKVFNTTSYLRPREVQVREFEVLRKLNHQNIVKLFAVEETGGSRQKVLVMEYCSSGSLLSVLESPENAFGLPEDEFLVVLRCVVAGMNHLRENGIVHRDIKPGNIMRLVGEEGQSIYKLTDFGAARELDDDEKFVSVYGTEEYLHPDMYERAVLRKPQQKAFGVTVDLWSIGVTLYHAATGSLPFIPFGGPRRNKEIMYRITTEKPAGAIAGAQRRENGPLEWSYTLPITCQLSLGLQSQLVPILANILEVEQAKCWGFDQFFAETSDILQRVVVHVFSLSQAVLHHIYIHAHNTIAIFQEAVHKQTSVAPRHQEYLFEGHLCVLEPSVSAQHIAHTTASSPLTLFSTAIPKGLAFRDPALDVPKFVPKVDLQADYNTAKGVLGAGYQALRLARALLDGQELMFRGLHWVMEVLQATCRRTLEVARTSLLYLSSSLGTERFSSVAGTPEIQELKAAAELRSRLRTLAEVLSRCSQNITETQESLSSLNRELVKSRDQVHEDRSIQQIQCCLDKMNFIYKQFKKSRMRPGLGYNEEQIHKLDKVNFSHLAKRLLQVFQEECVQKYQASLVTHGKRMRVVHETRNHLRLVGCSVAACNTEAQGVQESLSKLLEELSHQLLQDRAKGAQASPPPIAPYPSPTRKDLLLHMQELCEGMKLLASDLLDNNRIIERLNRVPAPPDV

[11] = target: Ribosomal protein S6 kinase alpha-2 (Homo sapiens, UniProt Q15349); conditions: Compound concentration 1.0 uM
[12] = target: Tyrosine-protein kinase Fes/Fps (Homo sapiens) (UniProt P07332); experiment: Fes(h) Eurofins kinase panel; conditions: Compound concentration 1.0 uM
[13] = target: Cyclin-dependent kinase-like 1 (Homo sapiens) (UniProt Q00532); experiment: CDKL1(h) Eurofins kinase panel; conditions: Compound concentration 1.0 uM
[14] = target: Dual specificity protein kinase CLK1 (Homo sapiens) (UniProt P49759); experiment: CLK1(h) Eurofins kinase panel; conditions: Compound concentration 1.0 uM
LNCaP C4-2B = experiment: C4-2B cell line Proliferation assay; format: functional, Homo sapiens; conditions: time 6 day
[15] = target: CDK18/Cyclin Y (Homo sapiens) (UniProt Q07002+Q8ND76); experiment: CDK18/cyclinY(h) Eurofins kinase panel; format: protein-complex assay; conditions: Compound concentration 1.0 uM
[16] = target: Mitogen-activated protein kinase 1 (Homo sapiens) (UniProt P28482); experiment: MAPK2(h) Eurofins kinase panel; conditions: Compound concentration 1.0 uM

Serine/threonine-protein kinase VRK2 (Homo sapiens), sequence (Q86Y07 whole entry): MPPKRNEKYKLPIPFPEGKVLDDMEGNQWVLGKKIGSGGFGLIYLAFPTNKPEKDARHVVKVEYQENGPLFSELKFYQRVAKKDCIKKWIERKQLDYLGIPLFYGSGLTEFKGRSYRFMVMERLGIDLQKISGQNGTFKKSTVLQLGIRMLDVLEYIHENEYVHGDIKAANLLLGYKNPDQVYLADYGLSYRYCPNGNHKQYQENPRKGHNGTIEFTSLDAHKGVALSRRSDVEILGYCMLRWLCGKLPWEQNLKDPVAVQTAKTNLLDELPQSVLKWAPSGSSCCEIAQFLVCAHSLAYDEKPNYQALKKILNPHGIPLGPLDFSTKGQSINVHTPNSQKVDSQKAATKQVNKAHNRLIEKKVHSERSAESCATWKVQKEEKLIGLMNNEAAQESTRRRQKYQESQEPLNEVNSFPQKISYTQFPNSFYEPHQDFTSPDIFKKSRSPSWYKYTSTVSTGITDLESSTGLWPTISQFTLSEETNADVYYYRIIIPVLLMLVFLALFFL
Serine/threonine-protein kinase PAK 2 (Homo sapiens), sequence (Q13177 whole entry): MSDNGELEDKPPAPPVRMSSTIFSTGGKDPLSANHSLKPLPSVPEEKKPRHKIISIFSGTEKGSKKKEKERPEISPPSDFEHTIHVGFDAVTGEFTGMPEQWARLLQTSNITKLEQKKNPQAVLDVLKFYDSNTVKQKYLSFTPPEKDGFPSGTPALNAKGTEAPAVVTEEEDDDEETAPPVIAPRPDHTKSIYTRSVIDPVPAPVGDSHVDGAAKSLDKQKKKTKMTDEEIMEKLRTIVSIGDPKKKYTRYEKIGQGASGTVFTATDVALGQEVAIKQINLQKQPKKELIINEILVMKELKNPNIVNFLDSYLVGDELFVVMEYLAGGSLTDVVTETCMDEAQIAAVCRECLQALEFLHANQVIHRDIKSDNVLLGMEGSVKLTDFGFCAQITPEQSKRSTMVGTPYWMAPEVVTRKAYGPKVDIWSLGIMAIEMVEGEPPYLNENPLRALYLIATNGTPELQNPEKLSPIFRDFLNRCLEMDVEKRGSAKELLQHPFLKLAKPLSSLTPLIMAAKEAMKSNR
Ribosomal protein S6 kinase alpha-2, sequence (Q15349 whole entry): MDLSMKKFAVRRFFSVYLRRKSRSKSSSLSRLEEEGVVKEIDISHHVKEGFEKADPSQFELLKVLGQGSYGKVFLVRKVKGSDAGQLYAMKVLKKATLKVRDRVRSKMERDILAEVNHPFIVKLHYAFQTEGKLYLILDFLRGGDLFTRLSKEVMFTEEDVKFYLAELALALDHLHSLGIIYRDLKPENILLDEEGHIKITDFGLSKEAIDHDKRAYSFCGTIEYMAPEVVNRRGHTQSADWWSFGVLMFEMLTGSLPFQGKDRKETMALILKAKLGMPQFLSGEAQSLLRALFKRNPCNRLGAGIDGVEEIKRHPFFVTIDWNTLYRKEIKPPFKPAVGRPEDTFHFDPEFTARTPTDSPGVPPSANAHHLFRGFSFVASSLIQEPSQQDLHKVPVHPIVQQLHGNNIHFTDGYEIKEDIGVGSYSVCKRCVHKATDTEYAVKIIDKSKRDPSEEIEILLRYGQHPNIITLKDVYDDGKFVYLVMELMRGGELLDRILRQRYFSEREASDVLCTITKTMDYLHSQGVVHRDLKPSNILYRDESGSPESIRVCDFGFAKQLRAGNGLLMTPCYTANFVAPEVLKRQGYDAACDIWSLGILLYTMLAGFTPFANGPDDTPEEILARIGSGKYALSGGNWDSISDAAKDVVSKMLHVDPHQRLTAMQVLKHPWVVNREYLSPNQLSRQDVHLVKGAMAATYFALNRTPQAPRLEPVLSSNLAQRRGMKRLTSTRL
Transient receptor potential cation channel subfamily M member 7 (Homo sapiens), sequence (Q96QT4 whole entry): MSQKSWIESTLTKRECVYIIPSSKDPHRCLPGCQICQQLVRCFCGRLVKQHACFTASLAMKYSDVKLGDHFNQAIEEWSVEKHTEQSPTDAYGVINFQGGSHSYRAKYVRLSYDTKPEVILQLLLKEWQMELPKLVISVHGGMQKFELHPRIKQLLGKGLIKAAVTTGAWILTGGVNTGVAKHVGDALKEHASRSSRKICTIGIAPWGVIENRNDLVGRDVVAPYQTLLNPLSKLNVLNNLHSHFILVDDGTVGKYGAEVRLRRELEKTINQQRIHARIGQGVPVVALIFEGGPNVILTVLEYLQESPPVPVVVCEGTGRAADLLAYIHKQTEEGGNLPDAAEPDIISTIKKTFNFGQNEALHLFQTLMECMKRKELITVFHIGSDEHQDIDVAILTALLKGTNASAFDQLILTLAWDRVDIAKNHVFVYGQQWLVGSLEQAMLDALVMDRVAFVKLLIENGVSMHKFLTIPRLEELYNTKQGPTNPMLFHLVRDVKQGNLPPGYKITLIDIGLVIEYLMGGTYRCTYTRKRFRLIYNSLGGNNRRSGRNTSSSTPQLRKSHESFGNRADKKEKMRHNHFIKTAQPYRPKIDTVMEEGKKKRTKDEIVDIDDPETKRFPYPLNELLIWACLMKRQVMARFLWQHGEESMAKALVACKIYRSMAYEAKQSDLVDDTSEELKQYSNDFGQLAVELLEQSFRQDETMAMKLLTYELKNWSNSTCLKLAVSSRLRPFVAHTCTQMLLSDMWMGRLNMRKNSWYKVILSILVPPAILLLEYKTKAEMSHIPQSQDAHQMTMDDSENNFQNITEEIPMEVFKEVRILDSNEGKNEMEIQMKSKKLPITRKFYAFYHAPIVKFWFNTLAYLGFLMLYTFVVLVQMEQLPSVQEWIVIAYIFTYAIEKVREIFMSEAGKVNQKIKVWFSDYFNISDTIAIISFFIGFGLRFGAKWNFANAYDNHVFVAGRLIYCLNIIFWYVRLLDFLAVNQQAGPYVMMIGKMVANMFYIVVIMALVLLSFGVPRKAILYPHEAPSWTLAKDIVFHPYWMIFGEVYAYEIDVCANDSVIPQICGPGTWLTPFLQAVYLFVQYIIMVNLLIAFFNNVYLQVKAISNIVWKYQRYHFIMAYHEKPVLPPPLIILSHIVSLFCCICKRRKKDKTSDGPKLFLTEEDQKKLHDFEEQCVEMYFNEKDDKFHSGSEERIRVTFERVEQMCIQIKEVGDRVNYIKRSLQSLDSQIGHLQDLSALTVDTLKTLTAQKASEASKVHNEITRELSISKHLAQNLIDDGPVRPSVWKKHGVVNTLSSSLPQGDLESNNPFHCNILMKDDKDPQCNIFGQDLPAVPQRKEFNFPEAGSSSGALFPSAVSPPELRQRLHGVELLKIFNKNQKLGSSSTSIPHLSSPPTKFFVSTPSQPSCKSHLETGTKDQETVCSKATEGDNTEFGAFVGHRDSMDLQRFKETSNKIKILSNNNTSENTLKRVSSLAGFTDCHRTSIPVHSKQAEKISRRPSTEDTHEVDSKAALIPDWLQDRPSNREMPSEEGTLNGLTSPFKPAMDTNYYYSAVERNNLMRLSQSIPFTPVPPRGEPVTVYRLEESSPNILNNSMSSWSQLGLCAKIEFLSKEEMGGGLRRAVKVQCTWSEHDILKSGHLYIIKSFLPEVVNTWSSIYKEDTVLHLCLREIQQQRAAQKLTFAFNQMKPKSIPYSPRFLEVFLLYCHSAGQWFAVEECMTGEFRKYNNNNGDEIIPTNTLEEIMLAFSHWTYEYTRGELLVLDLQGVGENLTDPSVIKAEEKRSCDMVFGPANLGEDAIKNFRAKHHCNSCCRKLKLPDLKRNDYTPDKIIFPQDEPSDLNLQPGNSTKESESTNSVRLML
Tyrosine-protein kinase Fes/Fps (Homo sapiens), sequence (P07332 whole entry): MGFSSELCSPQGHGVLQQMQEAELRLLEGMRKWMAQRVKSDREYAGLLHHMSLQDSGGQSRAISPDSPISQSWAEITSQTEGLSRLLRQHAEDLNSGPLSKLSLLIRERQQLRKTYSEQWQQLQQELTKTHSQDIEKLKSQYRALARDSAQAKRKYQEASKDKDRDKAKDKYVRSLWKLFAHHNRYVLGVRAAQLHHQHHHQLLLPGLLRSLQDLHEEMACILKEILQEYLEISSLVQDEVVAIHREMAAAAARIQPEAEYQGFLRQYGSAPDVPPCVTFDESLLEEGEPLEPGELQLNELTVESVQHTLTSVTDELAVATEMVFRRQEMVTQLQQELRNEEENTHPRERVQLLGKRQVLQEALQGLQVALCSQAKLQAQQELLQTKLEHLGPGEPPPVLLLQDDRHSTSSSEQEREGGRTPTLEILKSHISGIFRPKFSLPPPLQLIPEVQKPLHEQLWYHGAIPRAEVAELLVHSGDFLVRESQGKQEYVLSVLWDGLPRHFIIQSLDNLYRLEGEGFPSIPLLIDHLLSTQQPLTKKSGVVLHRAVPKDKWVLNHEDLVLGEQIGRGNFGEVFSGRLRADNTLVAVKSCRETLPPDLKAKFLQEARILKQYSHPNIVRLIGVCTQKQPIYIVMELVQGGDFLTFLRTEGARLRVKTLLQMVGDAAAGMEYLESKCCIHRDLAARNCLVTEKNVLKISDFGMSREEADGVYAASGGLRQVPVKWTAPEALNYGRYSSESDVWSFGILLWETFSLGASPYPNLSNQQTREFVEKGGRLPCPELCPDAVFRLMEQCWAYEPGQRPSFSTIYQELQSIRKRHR
Dual specificity protein kinase CLK1 (Homo sapiens), sequence (P49759 whole entry, looked up): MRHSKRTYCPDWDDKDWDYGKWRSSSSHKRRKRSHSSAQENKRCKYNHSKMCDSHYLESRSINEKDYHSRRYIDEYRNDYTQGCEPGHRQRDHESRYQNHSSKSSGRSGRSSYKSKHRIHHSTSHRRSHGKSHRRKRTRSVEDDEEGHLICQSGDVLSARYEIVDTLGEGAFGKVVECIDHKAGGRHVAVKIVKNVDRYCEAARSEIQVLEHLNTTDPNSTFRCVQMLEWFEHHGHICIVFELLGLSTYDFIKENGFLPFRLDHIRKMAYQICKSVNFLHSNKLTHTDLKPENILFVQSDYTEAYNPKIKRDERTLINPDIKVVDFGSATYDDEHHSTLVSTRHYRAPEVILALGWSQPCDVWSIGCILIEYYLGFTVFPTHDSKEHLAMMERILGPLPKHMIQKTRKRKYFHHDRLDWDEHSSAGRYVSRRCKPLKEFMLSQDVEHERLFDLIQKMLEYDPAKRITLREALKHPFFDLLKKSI

Work on `CCc1ccccc1C(=O)Nc1n[nH]c2c(C)c(F)c(C3C(C#N)=C(C)N(C)C(C)=C3C#N)cc12` [BAY-3827] yielded a % residual kinase activity [1] of 94%, a % residual kinase activity [2] of 105% and a % residual kinase activity [3] of 91%. For the same compound, the % residual kinase activity [4] was 100%, the % residual kinase activity [5] was 112% and the % residual kinase activity [6] was 86%. It also gave a % residual kinase activity [7] of 0%, a % residual kinase activity [8] of 98% and a % residual kinase activity [9] of 79%. For the same compound, the “Cell Proliferation IC50” value (SNU-16) was 12 µM, the % residual kinase activity [10] was 108% and the % residual kinase activity [11] was 5%. The % residual kinase activity [12] was 89%, the % residual kinase activity [13] was 95% and the % residual kinase activity [14] was 108%. The “Cell Proliferation IC50” value (LNCaP C4-2B) was >10 µM, the % residual kinase activity [15] was 106% and the % residual kinase activity [16] was 102%.
